Laboratory results reported in patent US20240279220A1, “INDOLE COMPOUNDS AND METHODS OF USE” (Genzyme Corporation, priority 2021, published 2024).

System: NBD1/3D
Assay: Aggregation analysis using differential static light scattering (DSLS), NBD1 thermal stability
Assay type: binding, Human
Details: ΔTagg versus DMSO control; compound at 100 μM
Experimental: Purified recombinant NBD1 was produced using previously described methods (A. Schmidt, J. L. Mendoza, P. J. Thomas (2011) Biochemical and Biophysical Approaches to Probe CFTR Structure (365-376) M. D. Amaral, K. Kunzelmann (eds.), Cystic Fibrosis, Methods in Molecular Biology 741, Springer Science+Business Media). The effect of test compounds on thermal stability of NBD1 was evaluated by differential static light scattering (DSLS) using the Harbinger Stargazer-384 instrument (Epiphyte Three, Toronto, Canada).
Test compounds were dissolved and diluted to desired concentrations in 100% DMSO. The compounds or DMSO controls (100 nL) were stamped into wells of a […] low volume optical plate (Corning Inc., Corning, NY) using the Echo 555 acoustic liquid handler (Labcyte Inc., San Jose, CA).
NBD1 protein was diluted to 0.2 mg/ml in S200 buffer (50 mM Tris-HCl, 150 mM NaCl, 5 mM MgCl2, 2 mM ATP, 2 mM DTT, pH7.6) containing 1% glycerol. 10 uL of protein solution was aliquoted into the 384-well plate harboring the test compounds and 10 uL mineral oil was overlayed onto the protein solution, using the epMotion robotic liquid handler (Eppendorf North America, Hauppauge, NY). After placing into the Stargazer instrument, the plate was heated at 1° C. per minute to 70° C. Images were captured from 25° C. to 70° C. every 0.5° C. At the end of the experiment run, instrument software integrated image files and analyzed data automatically. A […] regression curve was generated for each well, representing the increase in light scattering over time. A temperature of aggregation (Tagg) was calculated based on the inflection point of the curve. To better compare data across experiments the average Tagg for DMSO control wells was calculated and subtracted from values for wells containing compounds to obtain a “ΔTagg” value. These ΔTagg values reflect stabilizing efficacy of the compounds.

SMILES	DSLS NBD1/3D Human Stability delta-T (° C.) @ 100 (μM)
CC(O)(c1cccc([C@@H]2C[C@H]2C(=O)O)c1)c1c[nH]c(-c2cccc(Oc3c(F)cc4[nH]ccc4c3F)c2)n1 (mixture of isomers) [Example 184, rac-(1r,2r)-2-(3-(1-(2-(3-((4,6-Difluoro-1H-indol-5-yl)oxy)phenyl)-1H-imidazol-4-yl)-1-hydroxyethyl)phenyl)cyclopropane-1-carboxylic acid]	B (B: 5-10° C.)
Cc1c(Oc2cccc(-c3nnc(Cc4cccc([C@@H]5C[C@H]5C(=O)O)c4)[nH]3)c2)ccc2[nH]ccc12 (racemic) [Example 243, rac-(1R,2R)-2-(3-((5-(3-((4-Methyl-1H-indol-5-yl)oxy)phenyl)-4H-1,2,4-triazol-3-yl)methyl)phenyl)cyclopropane-1-carboxylic acid]	B (B: 5-10° C.)
Cc1c(Oc2ccc(F)c(-c3ncc([C@]4(c5cccc(CCC(=O)O)c5)C[C@@H](O)CO4)[nH]3)c2)c(F)cc2[nH]ccc12 (racemic) [Example 275, rac-3-(3-((2r,4r)-2-(2-(2-Fluoro-5-((6-fluoro-4-methyl-1H-indol-5-yl)oxy)phenyl)-1H-imidazol-5-yl)-4-hydroxytetrahydrofuran-2-yl)phenyl)propanoic acid]	B (B: 5-10° C.)
Cc1c(Oc2ccc(F)c(-c3ncc(C(C)c4cccc([C@@H]5C[C@H]5C(=O)O)c4F)[nH]3)c2)c(F)cc2[nH]ccc12 (relative stereo) [Example 139E, trans-2-(2-fluoro-3-(1-(2-(2-fluoro-5-((6-fluoro-4-methyl-1H-indol-5-yl)oxy)phenyl)-1H-imidazol-5-yl)ethyl)phenyl)cyclopropane-1-carboxylic acid]	B (B: 5-10° C.)
CC(c1ccn(-c2cccc(Oc3c(F)cc4[nH]ccc4c3S(C)(=O)=O)c2)n1)c1cccc(CCC(=O)O)c1F (single isomer, unassigned) [Example 23A, 3-(2-fluoro-3-(1-(1-(3-((6-fluoro-4-(methylsulfonyl)-1H-indol-5-yl)oxy)phenyl)-1H-pyrazol-3-yl)ethyl)phenyl)propanoic acid]	C (C: ≤5° C.)
CC(c1cccc(CCC(=O)O)c1F)n1ccc(-c2cc(Oc3c(F)cc4[nH]ccc4c3S(C)(=O)=O)ccc2F)n1 (single isomer, unassigned) [Example 41A, 3-(2-fluoro-3-(1-(3-(2-fluoro-5-((6-fluoro-4-(methylsulfonyl)-1H-indol-5-yl)oxy)phenyl)-1H-pyrazol-1-yl)ethyl)phenyl)propanoic acid]	C (C: ≤5° C.)
CC(c1coc(-c2cc(Oc3c(F)cc4[nH]ccc4c3S(C)(=O)=O)ccc2F)n1)c1cccc(CCC(=O)O)c1F (single isomer, unassigned) [Example 43B, 3-(2-fluoro-3-(1-(2-(2-fluoro-5-((6-fluoro-4-(methylsulfonyl)-1H-indol-5-yl)oxy)phenyl)oxazol-4-yl)ethyl)phenyl)propanoic acid]	C (C: ≤5° C.)
[2H]C([2H])([2H])C(C#N)(c1cc(F)cc(CCC(=O)O)c1)c1c[nH]c(-c2cc(Oc3c(F)c(F)c4[nH]ccc4c3F)ccc2F)n1 (single isomer, unassigned) [Example 65, 3-(3-(1-cyano-1-(2-(2-fluoro-5-((4,6,7-trifluoro-1H-indol-5-yl)oxy)phenyl)-1H-imidazol-4-yl)ethyl-2,2,2-d3)-5-fluorophenyl)propanoic acid]	B (B: 5-10° C.)
[2H]C([2H])([2H])C(C#N)(c1cc(F)cc(CCC(=O)O)c1)c1c[nH]c(-c2cc(Oc3c(F)c(F)c4[nH]ccc4c3F)ccc2F)n1 (single isomer, unassigned) [Example 66, 3-(3-(1-cyano-1-(2-(2-fluoro-5-((4,6,7-trifluoro-1H-indol-5-yl)oxy)phenyl)-1H-imidazol-4-yl)ethyl-2,2,2-d3)-5-fluorophenyl)propanoic acid]	B (B: 5-10° C.)
[2H]c1c[nH]c2c(F)c(F)c(Oc3ccc(F)c(-c4nc(C(C#N)(c5cc(F)cc(CCC(=O)O)c5)C([2H])([2H])[2H])c[nH]4)c3)c(F)c12 (single isomer, unassigned) [Example 67A, 3-(3-(1-cyano-1-(2-(2-fluoro-5-((4,6,7-trifluoro-1H-indol-5-yl-3-d)oxy)phenyl)-1H-imidazol-4-yl)ethyl-2,2,2-d3)-5-fluorophenyl)propanoic acid]	B (B: 5-10° C.)
CS(=O)(=O)c1c(Oc2ccc(F)c(-c3ncc(Cc4ccc5c(c4)CC(C(=O)O)C5)[nH]3)c2)c(F)cc2[nH]ccc12 (single isomer, unassigned) [Example 83A, 5-((2-(2-Fluoro-5-((6-fluoro-4-(methylsulfonyl)-1H-indol-5-yl)oxy)phenyl)-1H-imidazol-5-yl)methyl)-2,3-dihydro-1H-indene-2-carboxylic acid]	B (B: 5-10° C.)
CS(=O)(=O)c1c(Oc2ccc(F)c(-c3ncc(Cc4ccc5c(c4)CC(C(=O)O)C5)[nH]3)c2)c(F)cc2[nH]ccc12 (single isomer, unassigned) [Example 83B, 5-((2-(2-Fluoro-5-((6-fluoro-4-(methylsulfonyl)-1H-indol-5-yl)oxy)phenyl)-1H-imidazol-5-yl)methyl)-2,3-dihydro-1H-indene-2-carboxylic acid]	B (B: 5-10° C.)
CC(c1c[nH]c(-c2cc(Oc3c(F)cc4[nH]ccc4c3S(C)(=O)=O)ccc2F)n1)c1cccc(CC(=O)O)c1F (single isomer, unassigned) [Example 85, 2-(2-fluoro-3-(1-(2-(2-fluoro-5-((6-fluoro-4-(methylsulfonyl)-1H-indol-5-yl)oxy)phenyl)-1H-imidazol-4-yl)ethyl)phenyl)acetic acid]	B (B: 5-10° C.)
CC(c1cnc(-c2cc(Oc3c(F)cc4[nH]ccc4c3CC(F)(F)F)ccc2F)[nH]1)c1cccc(CCC(=O)O)c1F (single isomer, unassigned) [Example 128A, 3-(2-fluoro-3-(1-(2-(2-fluoro-5-((6-fluoro-4-(2,2,2-trifluoroethyl)-1H-indol-5-yl)oxy)phenyl)-1H-imidazol-5-yl)ethyl)phenyl)propanoic acid]	B (B: 5-10° C.)
CC(c1c[nH]c(-c2cc(Oc3c(F)cc4[nH]ccc4c3CC(F)F)ccc2F)n1)c1cccc(CCC(=O)O)c1F (single isomer, unassigned) [Example 129B, 3-(3-(1-(2-(5-((4-(2,2-difluoroethyl)-6-fluoro-1H-indol-5-yl)oxy)-2-fluorophenyl)-1H-imidazol-4-yl)ethyl)-2-fluorophenyl)propanoic acid]	C (C: ≤5° C.)
CC(C)OCCOCCC(c1cnc(-c2cc(Oc3c(F)cc4[nH]ccc4c3F)ccc2F)[nH]1)c1cccc(CCC(=O)O)c1F (single isomer, unassigned) [Example 130A, 3-(3-(1-(2-(5-((4,6-difluoro-1H-indol-5-yl)oxy)-2-fluorophenyl)-1H-imidazol-5-yl)-3-(2-isopropoxyethoxy)propyl)-2-fluorophenyl)propanoic acid]	C (C: ≤5° C.)
CC(c1cnc(-c2cc(Oc3c(F)cc4[nH]ccc4c3F)ccc2F)[nH]1)c1cccc(CC(=O)O)c1F (single isomer, unassigned) [Example 131B, 2-(3-(1-(2-(5-((4,6-difluoro-1H-indol-5-yl)oxy)-2-fluorophenyl)-1H-imidazol-5-yl)ethyl)-2-fluorophenyl)acetic acid]	B (B: 5-10° C.)
CC(c1cnc(-c2cc(Oc3c(F)cc4[nH]ccc4c3F)ccc2F)[nH]1)c1cc(F)cc(CCC(=O)O)c1F (single isomer, unassigned) [Example 132A, 3-(3-(1-(2-(5-((4,6-difluoro-1H-indol-5-yl)oxy)-2-fluorophenyl)-1H-imidazol-5-yl)ethyl)-2,5-difluorophenyl)propanoic acid]	C (C: ≤5° C.)
CC(c1cnc(-c2cc(Oc3c(F)cc4[nH]ccc4c3CP(C)(C)=O)ccc2F)[nH]1)c1cccc(CCC(=O)O)c1F (single isomer, unassigned) [Example 133A, 3-(3-(1-(2-(5-((4-((dimethylphosphoryl)methyl)-6-fluoro-1H-indol-5-yl)oxy)-2-fluorophenyl)-1H-imidazol-5-yl)ethyl)-2-fluorophenyl)propanoic acid]	C (C: ≤5° C.)
CC(c1cnc(-c2cc(Oc3c(F)cc4[nH]ccc4c3CN3CCCS3(=O)=O)ccc2F)[nH]1)c1cccc(CCC(=O)O)c1F (single isomer, unassigned) [Example 134A, 3-(3-(1-(2-(5-((4-((1,1-dioxidoisothiazolidin-2-yl)methyl)-6-fluoro-1H-indol-5-yl)oxy)-2-fluorophenyl)-1H-imidazol-5-yl)ethyl)-2-fluorophenyl)propanoic acid]	B (B: 5-10° C.)
